# In US20060166867A1, “Novel conjugates of polysaccharides and uses thereof” (priority 2003, published 2006):
# “And” between values parts separate entries of the source, which are not always exact repeats. Equal values may be shown once.
# Columns and labels:
# HIV-1 IIIB = assay: microbe, parasite or virus in culture; assay type: cell-based; conditions: Table 3; against HIV-1 IIIB virus; read-out: EC50
# Description: Inhibition of HIV-1 cell replication was tested using the cMAGI assay, which is based on the ability of HIV-1 TAT to transactivate the expression of an integrated β-galactosidase reporter gene driven by the HIV-LTR (B. Chackeria et al., J. Virol., (1997) 71, 3932; Collins et al., Nat. Med. (2000) 6, 475). The β-galactosidase reporter is modified to remain localized in the nucleus where it can be detected with the X-gal (5-bromo-4-chloro-3indoyl-β-D-galactopyranoside) substrate as an intense nuclear stain within a few days of infection.
# (§1) HIV-1 isolates were propagated by subculture in MT2 cells (Litovchick et al. (2001) supra). Aliquots of cell-free culture supernatants were used as viral inoculum. PAACs were dissolved in the RPMI 1640 medium. Cytotoxicity determinations were carried out in MT2 cells by trypan blue exclusion assay. Viral inhibition was determined by incubating MT2 or cMAGI HIV-1 reporter cells with 0.2-0.5 multiplicity of infection of HIV-1 wild type or resistant virus for 4 days at 37° C. in the presence or absence of various concentrations of pAACs. HIV-1 infection of cMAGI cells was determined by counting the number of HIV-1-infected cells (stained blue). The cytopathic effects of the viral infection of MT2 cells were also analyzed by microscopic assessment of syncytium formation.
# in vitro = assay type: cell-based; conditions: human, MT2 cells; Table 3; trypan blue exclusion; read-out: Cytotoxicity
# Description: Cytotoxicity of the various pAACs was determined using the trypan blue exclusion assay. In brief, a sample of the cell suspension was diluted 1:1 (v/v) with 0.4% trypan blue and the cells were counted using a hemocytometer. Results are expressed as the percentage of dead cells.
# as §1
# CXCR4 = target: T1, CXCR4 (Homo sapiens, UniProt P61073); assay: Competition with 12G5 mAb binding to CXCR4 on MT2 cells (flow cytometry); conditions: 80 μM; read-out: % Inhibition of 12G5 mAb binding to CXCR4
# T1 construct: incubated at 4° C. with anti-CXCR4 mAb, 12G5, conjugated to phycoerithrine (PE); endogenous in cells; host or cells: MT2 cells
# Description: Interaction of pAACs and arginine peptides with CXCR4 coreceptor: Interactions of pAACs and arginine-peptides with CXCR4 were determined by flow cytometry (FACS-Scan, Becton Dickinson) as previously described (Litovich (2001) supra). In brief, 0.5×10^6 MT2 cells were washed with ice-cold PBS containing 0.1% sodium azide (wash buffer) and were incubated at 4° C. with anti-CXCR4 mAb, 12G5, conjugated to phycoerithrine (PE), in the absence or presence of different concentrations of pAACs and arginine peptides. After 30 minutes of incubation, the cells were washed with ice-cold wash buffer and fixed in PBS containing 1% paraformaldehyde. Non-specific fluorescence was assessed using an isotype control. For each sample 10,000 events were acquired. Data were analyzed and processed using CellQuest™ software (Becton Dickinson).
# [1] = test system: Streptococcus bovis ATCC 9809; assay: MIC, broth microdilution; assay type: cell-based; conditions: Gram positive reference strain
# Description: (§2) Minimal Inhibition Concentration (MIC) measurements: The Minimal Inhibitory Concentration (MIC) was generally determined by the Broth Microdilution method (based on the protocol described in Clinical and Laboratory Standard Institute (CLSI) NCCLS (2003) M7-A6), as follows:
# (§3) A stock solution of each of the tested compounds was prepared by diluting the compound to a 2,560 μg/ml concentration with an appropriate solvent. The stock solution was then serially 2-fold diluted in 96-well microdilution trays using Cation-Adjusted Mueller-Hinton Broth (CAMHB) until reaching the desired range of concentrations, whereas each well contained double the final working concentration. Each row further had one growth control well (medium+inoculum only), and one sterility control well (medium+tested compound). Plates were stored at −70° C. until used.
# (§4) The tested microorganisms were used as fresh overnight cultures on blood agar (for gram-positive organisms) or MacConkey agar (for gram-negatives). A standardized inoculum suspension was prepared by the direct colony suspension method, using sterile saline (equivalent to a 0.5 McFarland standard).
# (§5) Thus, 50 μl of the inoculum suspension were added to each tested well (except for the sterility control well), and […] was performed during 18-24 hours (depending on the tested microorganism or compound) at 35° C.
# E. coli U3075921 = assay: MIC, broth microdilution; assay type: cell-based, Escherichia coli; conditions: clinical isolate, Table 7
# Description: as §2, §3, §4, §5
# cMAGI cells = conditions: FITC derivatives, 5 and 15 μM, 30 minutes at 37° C.
# Description: Cellular uptake using pAACs and polyarginine peptide-fluorescent derivatives: cMAGI cells were incubated in a 8-well plate (2000 cells/well) with a pAACs-FITC or a peptide-FITC derivative at a final concentration of 5 and 15 μM, for 30 minutes at 37° C. After incubation, cells were washed 3 times with phosphate buffered saline 3 times and were subjected to confocal microscopy measurements (Olympus IX70 FV500 confocal laser scanning microscope).
# [2] = test system: Staphylococcus aureus ATCC 24213; conditions: Gram positive reference strain
# S. aureus MSSA = conditions: Gram positive clinical isolate
# S. aureus MRSA = conditions: Gram positive clinical isolate
# S. epidermidis MSSE = conditions: Gram positive clinical isolate
# S. epidermidis MRSE = conditions: Gram positive clinical isolate
# [3] = test system: Enterococcus faecalis (clinical isolate); conditions: Gram positive clinical isolate
# [4] = test system: Escherichia coli ATCC 25922; conditions: Gram negative reference strain
# [5] = test system: Pseudomonas aeruginosa ATCC 27853; conditions: Gram negative reference strain
# [6] = test system: Klebsiella pneumoniae ATCC 13883; conditions: Gram negative reference strain
# [7] = test system: Proteus mirabilis ATCC 7002; conditions: Gram negative reference strain
# [8] = test system: Acinetobacter baumannii ATCC 19606; conditions: Gram negative reference strain
# [9] = test system: Moraxella catarrhalis ATCC 25238 (Branhamella); conditions: Gram negative reference strain
# E. Coli-ESBL negative = conditions: Gram negative clinical isolate
# E. Coli-ESBL positive = conditions: Gram negative clinical isolate
# [10] = test system: K. pneumoniae-ESBL negative; conditions: Gram negative clinical isolate
# [11] = test system: K. pneumoniae-ESBL positive; conditions: Gram negative clinical isolate
# Serratia marcescens = conditions: Gram negative clinical isolate
# Enterobacter cloacae = conditions: Gram negative clinical isolate
# Enterobacter aerogenes = conditions: Gram negative clinical isolate
# [12] = test system: P. aeruginosa-gentamicin^s, meropenem^s; conditions: Gram negative clinical isolate
# [13] = test system: P. aeruginosa-gentamicin^r, meropenem^r; conditions: Gram negative clinical isolate
# [14] = test system: A. baumannii-amikacin^s, meropenem^s; conditions: Gram negative clinical isolate
# [15] = test system: A. baumannii-amikacin^r, meropenem^r; conditions: Gram negative clinical isolate
# VRE faecium = conditions: clinical isolate, Table 7
# T1 sequence (P61073 whole entry): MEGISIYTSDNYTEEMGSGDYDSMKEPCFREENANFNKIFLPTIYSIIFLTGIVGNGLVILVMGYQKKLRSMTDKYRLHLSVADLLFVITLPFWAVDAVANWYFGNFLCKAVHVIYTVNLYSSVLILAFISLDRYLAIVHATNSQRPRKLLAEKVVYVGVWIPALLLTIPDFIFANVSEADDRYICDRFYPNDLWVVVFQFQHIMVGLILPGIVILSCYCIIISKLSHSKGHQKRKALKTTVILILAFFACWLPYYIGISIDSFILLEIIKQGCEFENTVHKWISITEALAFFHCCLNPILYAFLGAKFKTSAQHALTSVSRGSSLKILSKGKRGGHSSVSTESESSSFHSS
compound,measurement,setting,value
"N=C(N)NCCC[C@H](NC(=O)[C@H](CCCNC(=N)N)NC(=O)[C@H](CCCNC(=N)N)NC(=O)[C@H](CCCNC(=N)N)NC(=O)[C@H](CCCNC(=N)N)NC(=O)[C@H](CCCNC(=N)N)NC(=O)[C@H](CCCNC(=N)N)NC(=O)[C@H](CCCNC(=N)N)NC(=O)[C@@H](N)CCCNC(=N)N)C(=O)O [Compound 5, L-Arg-9-mer-NH2]",EC50,HIV-1 IIIB,33 µM
same,CC50,in vitro,120 µM
same,inhibition at 80 µM,CXCR4,52.8%
same,Minimum Inhibitory Concentration,[1],128.0 mg/L
same,Minimum Inhibitory Concentration,E. coli U3075921,> 256.0 mg/L
same,cellular uptake,cMAGI cells,lower uptake efficiency
same,Minimum Inhibitory Concentration,[2],128.0 mg/liter and 63.25 μM
same,Minimum Inhibitory Concentration,S. aureus MSSA,128.0 mg/liter and 63.25 μM
same,Minimum Inhibitory Concentration,S. aureus MRSA,> 128.0 mg/liter and 63.25 μM
same,Minimum Inhibitory Concentration,S. epidermidis MSSE,12.0 mg/liter and 5.93 μM
same,Minimum Inhibitory Concentration,S. epidermidis MRSE,32.0 mg/liter and 15.81 μM
same,Minimum Inhibitory Concentration,[3],128.0 mg/liter and 63.25 μM
same,Minimum Inhibitory Concentration,[4],> 256.0 mg/liter and 126.50 μM
same,Minimum Inhibitory Concentration,[5],> 256.0 mg/liter and 126.50 μM
same,Minimum Inhibitory Concentration,[6],> 256.0 mg/liter and 126.50 μM
same,Minimum Inhibitory Concentration,[7],> 256.0 mg/liter and 126.50 μM
same,Minimum Inhibitory Concentration,[8],> 256.0 mg/liter and 126.50 μM
same,Minimum Inhibitory Concentration,[9],32.0 mg/liter and 15.81 μM
same,Minimum Inhibitory Concentration,E. Coli-ESBL negative,> 256.0 mg/liter and 126.50 μM
same,Minimum Inhibitory Concentration,E. Coli-ESBL positive,256.0 mg/liter and 126.50 μM
same,Minimum Inhibitory Concentration,[10],> 256.0 mg/liter and 126.50 μM
same,Minimum Inhibitory Concentration,[11],> 256.0 mg/liter and 126.50 μM
same,Minimum Inhibitory Concentration,Serratia marcescens,> 256.0 mg/liter and 126.50 μM
same,Minimum Inhibitory Concentration,Enterobacter cloacae,> 256.0 mg/liter and 126.50 μM
same,Minimum Inhibitory Concentration,Enterobacter aerogenes,> 256.0 mg/liter and 126.50 μM
same,Minimum Inhibitory Concentration,[12],> 256.0 mg/liter and 126.50 μM
same,Minimum Inhibitory Concentration,[13],> 256.0 mg/liter and 126.50 μM
same,Minimum Inhibitory Concentration,[14],> 256.0 mg/liter and 126.50 μM
same,Minimum Inhibitory Concentration,[15],> 256.0 mg/liter and 126.50 μM
same,Minimum Inhibitory Concentration,VRE faecium,> 128.0 mg/L
